This note sets out measurements from patent publication US5593970A, “Heterocyclic anthracycline analogs” (priority 1994, dated 1997).

One series relates to Ovarian. Briefly: NCI assay, average per cancer type. The settings on record: for GI50 / CC50: Homo sapiens; for GI50: read-out: Average LOG10 GI50; for CC50: 48 h, read-out: Average LOG10 LC50.
In another series the test system is NSC Lung. Briefly: NCI assay, average per cancer type. To be noted: for CC50 / GI50: Homo sapiens; for CC50: 48 h, read-out: Average LOG10 LC50; for GI50: read-out: Average LOG10 GI50.
Another series deals with solid tumors. Briefly: NCI assay, mean potency in solid tumors. To be noted: for GI50 / CC50: Homo sapiens; for GI50: read-out: Average LOG10 GI50, Mean Potency in solid tumors; for CC50: 48 h, read-out: Average LOG10 LC50, Mean Potency in solid tumors.
A further series deals with CNS. Briefly: NCI assay, average per cancer type. To be noted: for GI50 / CC50: Homo sapiens; for GI50: read-out: Average LOG10 GI50; for CC50: 48 h, read-out: Average LOG10 LC50.
A further series concerns Melanoma. Briefly: NCI assay, average per cancer type. To be noted: for CC50 / GI50: Homo sapiens; for CC50: 48 h, read-out: Average LOG10 LC50; for GI50: read-out: Average LOG10 GI50.
The test system of the next series is SC Lung. Briefly: NCI assay, average per cancer type. The settings on record: for GI50 / CC50: Homo sapiens; for GI50: read-out: Average LOG10 GI50; for CC50: 48 h, read-out: Average LOG10 LC50.
Another series concerns Renal. Briefly: NCI assay, average per cancer type. To be noted: for CC50 / GI50: Homo sapiens; for CC50: 48 h, read-out: Average LOG10 LC50; for GI50: read-out: Average LOG10 GI50.
In the next series the test system is Leukemia. Briefly: NCI assay, average per cancer type. The settings on record: for CC50: 48 h, read-out: Average LOG10 LC50; for GI50: read-out: Average LOG10 GI50.
In a further series the test system is tumor cell lines. Briefly: NCI sulforhodamine B assay, all cell lines. To be noted: for CC50 / IC100 / GI50: Homo sapiens; for CC50 / IC100: 48 h; for CC50: read-out: Log10 LC50, Mean / MG-MID, all cell lines (converted); for IC100: read-out: Log10 TGI, Mean / MG-MID, all cell lines; for GI50: read-out: Log10 GI50, Mean / MG-MID, all cell lines (converted). Background: The SRB assay estimates cell density from bound dye.

Another series deals with MCF7. Briefly: Soft agar colony formation disk diffusion assay. The class given is cell-based, human. Put shortly: (§1)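 Antiproliferative activity is scored as the distance from the filter disk to the first colonies in a soft agar clonogenic culture. Each solid-tumour line is plated on its own dish, with compound dissolved in DMSO and diluted in water before loading on the disk.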
(In agar diffusion tests the substance spreads into inoculated agar from a disc or well.)

The subject of another series is LS180. Briefly: Soft agar colony formation disk diffusion assay. The class given is cell-based, human. The method in brief: as §1
The test system of the next series is MCF7/ADR. Briefly: Soft agar colony formation disk diffusion assay. It is filed as cell-based, human. The method in brief: as §1
The subject of another series is SKVLB. Briefly: Microculture tetrazolium assay. The class given is cell-based. The settings on record: for IC50: SKVLB, read-out: IC50; for VLB/OV3: IC50 ratio SKVLB/SKOV3.

For `COC(=O)C1CC2=C(C(=O)c3c(cc4ccccc4c3O)C2=O)C(O[C@H]2C[C@H](NC(=O)C(F)(F)F)[C@H](O)[C@H](C)O2)O1` (mixture of isomers) [BCH-242, (1'S,1R,3S) and (1'S, 1S,3R)-Methyl[11-hydroxy-1-2',3',6'-trideoxy-3-trifluroacetamido-L-lyxohexopyranose)-5,12-dioxo-3,4,5,12-tetrahydroanthraceno[2,3-c]pyran-3-yl]formate], the GI50 with Ovarian is 0.741 µM; in the series with NSC Lung, 0.977 µM; in the series on solid tumors it was 0.661 µM; in the series with CNS, 1.55 µM; with Melanoma, 0.437 µM; in the series with SC Lung it was 0.355 µM. The values for the GI50 in the series with Renal and in the series with Leukemia were 0.955 µM and 0.316 µM, respectively. For the same molecule, the CC50 with NSC Lung was 6.17 µM; in the series on Melanoma, 3.89 µM; with Renal, 6.03 µM; in the series with Leukemia it was above 100 µM; in the series on tumor cell lines, 14.5 µM. In the series with solid tumors (solid tumors, 2880 min), the “Average LOG10 LC50, Mean Potency in solid tumors” value is -5.32 ± 0.20 log molar. For the same molecule, the “antiproliferative and cytotoxic activity in words” value in the series with tumor cell lines is listed as “most of the cell lines of solid tumors ultimately show cytotoxicity to the drug”. For the same molecule, the IC100 in the series on tumor cell lines is 5.25 µM. Moreover, the “Log10 TGI, Mean / MG-MID” value in the series with tumor cell lines (all cell lines) is listed as -5.52 log molar. Further, the “Log10 LC50, Mean / MG-MID” value in the series with tumor cell lines (all cell lines, 2880 min) was -5.09 log molar.

The term IC50 denotes the concentration that gives 50% inhibition. In the case of `CCOC(=O)[C@@H]1CC2=C(C(=O)c3c(c(O)c4ccccc4c3OC(C)=O)C2=O)[C@@H](O)O1` (mixture of isomers) [BCH-658, (1S,3S) and (1R,3R) Ethyl[11-acetoxy-1,6-dihydroxy-5,12-dioxo-3,4,5,12-tetrahydroanthraceno (2,3-c)pyran-3-yl]formate], the zone of inhibition in the series with MCF7 (10 μg/DISK) was found to be 0 Zone Units; with LS180 (10 μg/DISK), 48.8 ± 34.5 Zone Units; in the series with LS180 (100 μg/DISK), 164.7 ± 25.8 Zone Units; in the series with MCF7/ADR (10 μg/DISK) it was 0 Zone Units; in the series with MCF7/ADR (100 μg/DISK), 0 Zone Units. For the same molecule, the CC50 in the series with Ovarian, with NSC Lung, with solid tumors, in the series with CNS, in the series on Melanoma and in the series with SC Lung was above 100 µM each time. Moreover, the CC50 with Renal was above 100 µM; in the series on Leukemia, above 100 µM; with tumor cell lines it was 100 µM. Moreover, the GI50 with Ovarian was above 100 µM; with NSC Lung it was above 100 µM; in the series with solid tumors it was 51.3 µM; in the series on CNS it was 46.8 µM; with Melanoma it was above 100 µM; with SC Lung it was above 100 µM. Besides, the GI50 in the series on Renal was 46.8 µM; with Leukemia, above 100 µM; with tumor cell lines, 70.8 µM. Also, the IC50 in the series with SKVLB is above 100 µM. In the series with tumor cell lines, the IC100 is 97.7 µM.

Regarding `CCOC(=O)[C@@H]1CC2=C(C(=O)c3cc4ccccc4c(OC(C)=O)c3C2=O)[C@@H](O)O1` (mixture of isomers) [BCH-660, (1S,3S) and (1R,3R)-Ethyl-[6-acetoxy-1-hydroxy-5,12-dioxo-3,4,5,12-tetrahydroanthraceno (2,3-c)pyran-3-yl]formate], the zone of inhibition with MCF7 (10 μg/DISK) stood at 27.4 ± 4.3 Zone Units; in the series with MCF7 (100 μg/DISK), 82.3 ± 12.9 Zone Units; in the series with LS180 (10 μg/DISK), 15.0 ± 4.2 Zone Units; in the series with LS180 (100 μg/DISK) it was 76.0 ± 4.2 Zone Units; in the series with MCF7/ADR (10 μg/DISK), 9.1 ± 4.3 Zone Units; in the series with MCF7/ADR (100 μg/DISK), 109.8 ± 10.0 Zone Units. The CC50 is 6.61 µM in the series on Ovarian; 19.5 µM in the series on NSC Lung; 11.2 µM in the series on solid tumors; 15.8 µM with CNS; 10.5 µM in the series on Melanoma; above 100 µM with SC Lung. Moreover, the CC50 in the series on Renal was 7.94 µM; in the series with Leukemia, above 100 µM; in the series on tumor cell lines, 21.4 µM. Further, the GI50 in the series with Ovarian is 0.955 µM; in the series on NSC Lung, 0.977 µM; in the series on solid tumors, 0.891 µM; in the series on CNS it was 0.955 µM; with Melanoma it was 0.955 µM; with SC Lung, 1 µM. The figures for the GI50 in the series on Renal, in the series with Leukemia and in the series with tumor cell lines were 0.912 µM, 0.316 µM and 0.813 µM, respectively. The VLB/OV3 in the series on SKVLB is given as 1.22. Besides, the IC50 in the series with SKVLB is 6.49 µM. Also, in the series on tumor cell lines, the “antiproliferative and cytotoxic activity in words” value is “strong antiproliferative (GI50) and potent cytotoxic (LC50) activities”. The IC100 with tumor cell lines is 2.82 µM.

Turning to `CCOC(=O)C1CC2=C(CO1)C(=O)c1cc3ccccc3c(O)c1C2=O` (centres unmarked) [BCH-653, Ethyl(6 and 11 hydroxy-5,12-dioxo-3,4,5,12-tetrahydro-anthraceno[2,3-c]pyran-3-yl)]formate], the zone of inhibition with MCF7 (100 μg/DISK) stood at 106.1 ± 21.5 Zone Units; with LS180 (100 μg/DISK) it was 35.5 ± 0.7 Zone Units; in the series with MCF7/ADR (100 μg/DISK), 91.5 ± 43.1 Zone Units. The CC50 in the series with Ovarian, with NSC Lung, in the series on solid tumors, in the series with CNS, in the series with Melanoma and in the series with SC Lung was above 100 µM each time. In addition, the values for the CC50 in the series on Renal, in the series on Leukemia and with tumor cell lines were above 100 µM, above 100 µM and 100 µM, respectively. Also, the GI50 in the series with Ovarian was 38 µM; in the series on NSC Lung, 44.7 µM; in the series with solid tumors it was 39.8 µM; in the series with CNS, 50.1 µM; with Melanoma, 33.1 µM; in the series on SC Lung, 28.8 µM. The GI50 in the series on Renal was 57.5 µM; with Leukemia it was 15.8 µM; in the series on tumor cell lines it was 42.7 µM. In addition, in the series on tumor cell lines, the IC100 is 100 µM.

On to `CCOC(=O)[C@@H]1CC2=C(C(=O)c3cc4ccccc4c(O)c3C2=O)[C@@H](O[C@H]2C[C@H](NC(=O)C(F)(F)F)[C@H](O)[C@H](C)O2)O1` [BCH-681, (1'S,1R,3S)Ethyl[6-hydroxy-5,12-dioxo-1-(3'-trifuloroacetamido-1-daunosaminyl)-3,4,5,12-tetrahydroanthraceno(2,3-C)pyran-3-yl]formate], for which the zone of inhibition worked out at 82.7 ± 30.1 Zone Units with MCF7/ADR (10 μg/DISK) and 326.3 ± 56.0 Zone Units in the series on MCF7/ADR (100 μg/DISK). In addition, the CC50 with Ovarian was 16.6 µM; in the series with NSC Lung, 22.9 µM; in the series with solid tumors, 12.3 µM; in the series on CNS, 22.4 µM; in the series on Melanoma, 5.01 µM; in the series with SC Lung, 6.61 µM. Moreover, the CC50 with Renal is 21.9 µM; in the series with Leukemia, below 100 µM; in the series with tumor cell lines, 16.2 µM. In addition, the GI50 in the series with Ovarian is 2.69 µM; in the series on NSC Lung, 2.88 µM; in the series with solid tumors, 2.09 µM; in the series with CNS it was 2.88 µM; with Melanoma, 1.12 µM; in the series with SC Lung, 1.7 µM. For the same molecule, the GI50 is 3.02 µM in the series with Renal, 2.04 µM in the series with Leukemia and 2.14 µM with tumor cell lines. Besides, the VLB/OV3 with SKVLB turned out to be 1.16. Besides, the IC50 with SKVLB turned out to be 6.99 µM. The IC100 in the series with tumor cell lines was 5.5 µM.

For “Methyl(11-hydroxy-5,12-dioxo-3,4,5,12-tetrahydroanthraceno[2,3-c]pyran-3-yl)ketone and Methyl(5-hydroxy-5,12-dioxo-3,4,5,12-tetrahydroanthraceno[2,3-c]pyran-3-yl)ketone [BCH-687]”, the zone of inhibition in the series with MCF7 (10 μg/DISK) came out at 71.1 ± 9.3 Zone Units; in the series on MCF7 (100 μg/DISK) it was 152.5 ± 50.0 Zone Units; in the series on LS180 (10 μg/DISK), 152.5 ± 30.5 Zone Units; with LS180 (100 μg/DISK), 233.8 ± 17.6 Zone Units; in the series on MCF7/ADR (10 μg/DISK), 61.0 ± 6.1 Zone Units; in the series with MCF7/ADR (100 μg/DISK), 140.0 ± 32.3 Zone Units. Besides, in the series with MCF7/ADR, the “cross resistance with adriamycin, MCF7/ADR vs MCF7” value is “lack of cross resistance with adriamycin”. In addition, the “Average LOG10 GI50” value is -4.94 ± 0.37 log molar with Ovarian (Ovarian); -4.81 ± 0.35 log molar in the series with NSC Lung (NSC Lung); -4.59 ± 0.16 log molar in the series on CNS (CNS); -5.05 ± 0.27 log molar in the series on Melanoma (Melanoma); -5.09 ± 0.25 log molar in the series with SC Lung (SC Lung); -4.69 ± 0.23 log molar in the series with Renal (Renal). Besides, the “Average LOG10 GI50” value in the series on Leukemia (Leukemia) is listed as -4.91 ± 0.12 log molar. For the same molecule, the “Average LOG10 GI50, Mean Potency in solid tumors” value in the series with solid tumors (solid tumors) is on record as -4.87 ± 0.17 log molar. Moreover, in the series on tumor cell lines, the “antiproliferative and cytotoxic activity in words” value is “significant antiproliferative (GI50) and cytotoxic (LC50) activities in solid tumors”. For the same molecule, the “Log10 GI50, Mean / MG-MID” value in the series on tumor cell lines (all cell lines) is recorded as -4.85 log molar. For the same molecule, the “Log10 TGI, Mean / MG-MID” value in the series on tumor cell lines (all cell lines) is listed as -4.37 log molar.
